Laboratory results published in ChEMBL document CHEMBL4619828, “Discovery of Potent and Orally Bioavailable Small Molecule Antagonists of Toll-like Receptors 7/8/9 (TLR7/8/9)” (ACS Med Chem Lett, 2020).

Target: T1, Toll-like receptor 9 (Homo sapiens, UniProt Q9NR96)
T1 sequence (Q9NR96 whole entry): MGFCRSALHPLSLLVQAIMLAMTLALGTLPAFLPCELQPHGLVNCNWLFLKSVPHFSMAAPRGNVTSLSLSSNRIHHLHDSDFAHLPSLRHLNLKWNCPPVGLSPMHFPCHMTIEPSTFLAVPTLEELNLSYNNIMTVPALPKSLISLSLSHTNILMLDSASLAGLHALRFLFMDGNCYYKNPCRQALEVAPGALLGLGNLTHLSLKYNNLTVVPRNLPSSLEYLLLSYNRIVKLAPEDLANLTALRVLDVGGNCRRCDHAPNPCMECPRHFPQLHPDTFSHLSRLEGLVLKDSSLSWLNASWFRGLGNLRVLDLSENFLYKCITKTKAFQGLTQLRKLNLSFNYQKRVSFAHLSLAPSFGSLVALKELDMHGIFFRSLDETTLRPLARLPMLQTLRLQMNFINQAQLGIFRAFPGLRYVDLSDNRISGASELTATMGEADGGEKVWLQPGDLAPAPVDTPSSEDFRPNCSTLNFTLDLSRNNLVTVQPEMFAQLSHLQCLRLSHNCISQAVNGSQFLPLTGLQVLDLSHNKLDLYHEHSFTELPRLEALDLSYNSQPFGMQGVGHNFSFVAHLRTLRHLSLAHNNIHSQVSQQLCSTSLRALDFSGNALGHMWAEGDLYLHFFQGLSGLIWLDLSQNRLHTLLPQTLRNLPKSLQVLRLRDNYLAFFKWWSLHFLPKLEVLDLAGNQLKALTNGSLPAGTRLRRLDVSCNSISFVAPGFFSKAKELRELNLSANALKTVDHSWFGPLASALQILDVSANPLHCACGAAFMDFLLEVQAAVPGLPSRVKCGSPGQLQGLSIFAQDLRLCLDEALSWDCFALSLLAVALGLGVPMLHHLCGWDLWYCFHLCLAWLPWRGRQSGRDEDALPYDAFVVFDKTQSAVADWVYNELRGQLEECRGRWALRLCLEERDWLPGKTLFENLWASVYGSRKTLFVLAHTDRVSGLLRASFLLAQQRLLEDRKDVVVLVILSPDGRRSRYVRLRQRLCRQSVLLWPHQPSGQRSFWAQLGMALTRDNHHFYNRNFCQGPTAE
Assay: Antagonist activity at TLR9 in human pDC assessed as inhibition of ODN2216-induced IFN-alpha production incubated for 24 hrs measured by ELISA

**Q.** How did the IC50 turn out when `CNCCN1CCC(c2ccc3[nH]c(-c4ccc(OC)c(OC)c4)c(C(C)C)c3c2)CC1` was run?
**A.** The IC50 was 210 nM.
